Measurements taken from EP0408760B1, “NEW HYDROXYLAMINE DERIVATIVE” (FUJISAWA PHARMACEUTICAL CO., LTD., priority 1988, dated 1990).

Tested on: D-Galactosamine-induced hepatitis in rats
Experiment: Effect of compound on D-Galactosamine-induced hepatitis in rats (serum GOT and GPT)
Type: in vivo
Settings: orally 3 hour before and after D-Galactosamine, blood 24 hours later, male Wistar rats
Description: Method : Effect of compound on D-Galactosamine-induced hepatitis in rats
Acute hepatitis was induced in male Wistar rats at 6 weeks of age by the intraperitoneal injection of 80 mg/ml D-Galactosamine in saline at the volume of 5 ml/kg. Blood samples were taken in rats under ether anaesthesia 24 hours later.
After centrifugation for the separation of sera, the levels of GOT and GPT were determined spectrophotometrically according to Biochemical Analyzer TBA-20R (Toshiba).
Compound was dissolved in polyethylene glycol 400, and administered orally 3 hour before and after the injection of D-Galactosamine.
The levels of serum GOT and GPT in group of animals were measured as described above, and the mean value of each group calculated, including normal rats without D-Galactosamine injection.
The effect of compound was expressed as the percentage Inhibition at serum GOT and GPT, taking activity of control serum as 0% Inhibtion and that of normal serum as 100% Inhibition.

CCNC(=O)N(O)CC1=Cc2cccc(Oc3ccccc3)c2CC1 [Test Compound (f), N-[(3,4-Dihydro-5-phenoxy-2-naphthyl)methyl]-N-hydroxy-N'-ethylurea]
Inhibition (%) serum GOT (dose 1 mg/kg): 38%
Inhibition (%) serum GPT (dose 1 mg/kg): 42%
Inhibition (%) serum GOT (dose 10 mg/kg): 40%
Inhibition (%) serum GPT (dose 10 mg/kg): 37%
Inhibition (%) serum GOT (dose 32 mg/kg): 67%
Inhibition (%) serum GPT (dose 32 mg/kg): 64%
